# Test results reported in patent publication US20120083522A1, “MODULATION OF INFLAMMATORY RESPONSES BY FACTOR XI” (Isis Pharmaceuitcals, inc., priority 2009, published 2012).
# In the oligonucleotide strings, read from the 5' end, every base follows the letter of its sugar. An asterisk marks phosphorothioate; unmarked linkages are phosphodiester. Other units and linkages are bracketed, terminal groups are in braces. A string of capitals states the bases alone. e = 2'-O-(2-methoxyethyl) (MOE); [5mC] = 5-methylcytosine; d = 2'-deoxy (DNA)
# Tests used:
# human Factor XI mRNA = experiment: Antisense inhibition in HepG2 cells by microwalk gapmers, 8,000 nM, electroporation (Example 14); format: cell-based; details: HepG2 cells, 8,000 nM
# Experimental: These microwalk gapmers were tested in vitro. Cultured HepG2 cells at a density of 20,000 cells per well were transfected using electroporation with 8,000 nM antisense oligonucleotide. After a treatment period of approximately 24 hours, RNA was isolated from the cells and Factor XI mRNA levels were measured by quantitative real-time PCR. Factor XI mRNA levels were adjusted according to total RNA content, as measured by RIBOGREEN. Results are presented as percent inhibition of Factor XI, relative to untreated control cells.
# The chimeric antisense oligonucleotides in Table 51 were designed as 5-10-5 MOE, 5-8-5 and 6-8-6 MOE gapmers. The first two listed gapmers in Table 51 are the original gapmers (ISIS 416850 and ISIS 416858) from which ISIS 445493-445543 were designed via microwalk, and are designated by an asterisk. The 5-10-5 gapmers are 20 nucleotides in length, wherein the central gap segment is comprised of ten 2′-deoxynucleotides and is flanked on both sides (in the 5′ and 3′ directions) by wings comprising five nucleotides each. The 5-8-5 gapmers are 18 nucleotides in length, wherein the central gap segment is comprised of eight 2′-deoxynucleotides and is flanked on both sides (in the 5′ and 3′ directions) by wings comprising five nucleotides each. The 6-8-6 gapmers are 20 nucleotides in length, wherein the central gap segment is comprised of eight 2′-deoxynucleotides and is flanked on both sides (in the 5′ and 3′ directions) by wings comprising six nucleotides each. For each of the motifs (5-10-5, 5-8-5 and 6-8-6), each nucleotide in the 5′ wing segment and each nucleotide in the 3′ wing segment has a 2′-MOE modification. The internucleoside linkages throughout each gapmer are phosphorothioate (P═S) linkages. All cytidine residues throughout each gapmer are 5-methylcytidines. “Human Target start site” indicates the 5′-most nucleotide to which the gapmer is targeted in the human sequence. “Human Target stop site” indicates the 3′-most nucleotide to which the gapmer is targeted in the human sequence. Each gapmer listed in Table 51 is targeted to SEQ ID NO: 1 (GENBANK Accession No. NM_000128.3). Each gapmer is Table 51 is also fully cross-reactive with the rhesus monkey Factor XI gene sequence, designated herein as SEQ ID NO: 274 (exons 1-15 GENBANK Accession No. NW—001118167.1). ‘Rhesus monkey start site’ indicates the 5′-most nucleotide to which the gapmer is targeted in the rhesus monkey sequence. ‘Rhesus monkey stop site’ indicates the 3′-most nucleotide to which the gapmer is targeted to the rhesus monkey sequence.
# Factor XI protein = experiment: Cynomolgus monkeys: plasma Factor XI protein ELISA (Example 29); format: in vivo; details: escalating doses 5, 10, 25 mg/kg s.c.
# Experimental: (§1) Groups, each consisting of two male and three female monkeys, were injected subcutaneously with ISIS 416838, ISIS 416850, ISIS 416858, ISIS 416864, or ISIS 417002 in escalating doses. Antisense oligonucleotide was administered to the monkeys at 5 mg/kg three times per a week for week 1; 5 mg/kg twice per week for weeks 2 and 3; 10 mg/kg three times per week for week 4; 10 mg/kg twice per week for weeks 5 and 6; 25 mg/kg three times per week for week 7; and 25 mg/kg twice per week for weeks 8, 9, 10, 11, and 12. One control group, consisting of two male and three female monkeys, was injected subcutaneously with PBS according to the same dosing regimen. An additional experimental group, consisting of two male and three female monkeys, was injected subcutaneously with ISIS 416850 in a chronic, lower dose regimen. Antisense oligonucleotide was administered to the monkeys at 5 mg/kg three times per week for week 1; 5 mg/kg twice per week for week 2 and 3; 10 mg/kg three times per week for week 4; and 10 mg/kg twice per week for weeks 5 to 12. Body weights were measured weekly. Blood samples were collected 14 days and 5 days before the start of treatment and subsequently once per week for Factor XI protein activity analysis in plasma and measurement of various hematologic factors. On day 85, the monkeys were euthanized by exsanguination while under deep anesthesia, and organs harvested for further analysis.
# Plasma samples from all monkey groups taken on different days were analyzed by a sandwich-style ELISA assay (Affinity Biologicals Inc.) using an affinity-purified polyclonal anti-Factor XI antibody as the capture antibody and a peroxidase-conjugated polyclonal anti-Factor XI antibody as the detecting antibody. Monkey plasma was diluted 1:50 for the assay. Peroxidase activity was expressed by incubation with the substrate o-phenylenediamine. The color produced was quantified using a microplate reader at 490 nm and was considered to be proportional to the concentration of Factor XI in the samples.
# The results are presented in Table 122, expressed as percentage reduction relative to that of the PBS control.
# [1] = Cynomolgus monkeys: body and organ weights (Example 29); format: in vivo; details: for Kidney weight / Liver weight / Spleen weight: after euthanasia; for Body weight: escalating doses 5, 10, 25 mg/kg s.c.
# Experimental: as §1
# Body weights were taken once weekly throughout the dosing regimen. […] Organ weights were taken after the animals were euthanized and livers, kidneys and spleens were harvested and weighed. […] The ISIS oligonucleotide, ISIS 416850, given with the chronic dose regimen is distinguished from the other oligonucleotides with an asterisk (*).
# [2] = Cynomolgus monkeys: hematology assays (Example 29); format: in vivo
# Experimental: as §1
# The ISIS oligonucleotide, ISIS 416850, given with the chronic dose regimen is distinguished from the other oligonucleotides with an asterisk (*).
substance,measurement,setting,value
445493 (antisense eA*e[5mC]*eA*eG*eT*eT*dT*d[5mC]*dT*dG*dG*d[5mC]*dA*dG*eG*e[5mC]*e[5mC]*eT*e[5mC]*eG) [compound 445493],Percent inhibition of human Factor XI mRNA levels,human Factor XI mRNA,69%
"445494 (antisense CACAGTTTCTGGCAGGCCTC; 6-8-6 gapmer chemistry, chemistry not fully specified) [compound 445494]",Percent inhibition of human Factor XI mRNA levels,human Factor XI mRNA,85%
ISIS 416838: gapmer of Table 6 (antisense eG*e[5mC]*eA*eA*e[5mC]*d[5mC]*dG*dG*dG*dA*dT*dG*dA*dT*dG*eA*eG*eT*eG*e[5mC]),Inhibition of Factor XI protein relative to the PBS control,Factor XI protein; day 8,3%
same,Inhibition of Factor XI protein relative to the PBS control,Factor XI protein; day 15,4%
same,Inhibition of Factor XI protein relative to the PBS control,Factor XI protein; day 22,5%
same,Inhibition of Factor XI protein relative to the PBS control,Factor XI protein; day 29,8%
same,Inhibition of Factor XI protein relative to the PBS control,Factor XI protein; day 36,11%
same,Inhibition of Factor XI protein relative to the PBS control,Factor XI protein; day 43,5%
same,Inhibition of Factor XI protein relative to the PBS control,Factor XI protein; day 50,8%
same,Inhibition of Factor XI protein relative to the PBS control,Factor XI protein; day 57,10%
same,Inhibition of Factor XI protein relative to the PBS control,Factor XI protein; day 64,11%
same,Inhibition of Factor XI protein relative to the PBS control,Factor XI protein; day 71,12%
same,Inhibition of Factor XI protein relative to the PBS control,Factor XI protein; day 78,10%
same,Inhibition of Factor XI protein relative to the PBS control,Factor XI protein; day 85,10%
same,Inhibition of Factor XI protein relative to the PBS control,Factor XI protein; day −5 (before treatment),0%
same,Inhibition of Factor XI protein relative to the PBS control,Factor XI protein; day −14 (before treatment),0%
same,Kidney weight,[1],12 g
same,Liver weight,[1],63 g
same,Spleen weight,[1],5 g
same,Body weight,[1]; day 1,2720 g
same,Body weight,[1]; day 8,2592 g
same,Body weight,[1]; day 15,2642 g
same,Body weight,[1]; day 22,2702 g
same,Body weight,[1]; day 29,2689 g
same,Body weight,[1]; day 36,2708 g
same,Body weight,[1]; day 43,2700 g
same,Body weight,[1]; day 50,2731 g
same,Body weight,[1]; day 57,2737 g
same,Body weight,[1]; day 64,2746 g
same,Body weight,[1]; day 71,2869 g
same,Body weight,[1]; day 78,2766 g
same,platelet count,[2]; day 8,387000 µL⁻¹
same,platelet count,[2]; day 15,387000 µL⁻¹
same,platelet count,[2]; day 22,319000 µL⁻¹
same,platelet count,[2]; day 29,337000 µL⁻¹
same,platelet count,[2]; day 36,370000 µL⁻¹
same,platelet count,[2]; day 43,365000 µL⁻¹
same,platelet count,[2]; day 50,372000 µL⁻¹
same,platelet count,[2]; day 57,371000 µL⁻¹
same,platelet count,[2]; day 64,358000 µL⁻¹
same,platelet count,[2]; day 71,365000 µL⁻¹
same,platelet count,[2]; day 78,348000 µL⁻¹
same,platelet count,[2]; day 85,344000 µL⁻¹
same,platelet count,[2]; day −5,425000 µL⁻¹
same,platelet count,[2]; day −14,377000 µL⁻¹
ISIS 416864: gapmer of Table 8 (antisense eG*eG*e[5mC]*eA*eG*d[5mC]*dG*dG*dA*d[5mC]*dG*dG*d[5mC]*dA*dT*eT*eG*eG*eT*eG),Inhibition of Factor XI protein relative to the PBS control,Factor XI protein; day 8,7%
same,Inhibition of Factor XI protein relative to the PBS control,Factor XI protein; day 15,9%
same,Inhibition of Factor XI protein relative to the PBS control,Factor XI protein; day 22,7%
same,Inhibition of Factor XI protein relative to the PBS control,Factor XI protein; day 29,10%
same,Inhibition of Factor XI protein relative to the PBS control,Factor XI protein; day 36,9%
same,Inhibition of Factor XI protein relative to the PBS control,Factor XI protein; day 43,9%
same,Inhibition of Factor XI protein relative to the PBS control,Factor XI protein; day 50,10%
same,Inhibition of Factor XI protein relative to the PBS control,Factor XI protein; day 57,7%
same,Inhibition of Factor XI protein relative to the PBS control,Factor XI protein; day 64,5%
same,Inhibition of Factor XI protein relative to the PBS control,Factor XI protein; day 71,10%
same,Inhibition of Factor XI protein relative to the PBS control,Factor XI protein; day 78,9%
same,Inhibition of Factor XI protein relative to the PBS control,Factor XI protein; day 85,8%
same,Inhibition of Factor XI protein relative to the PBS control,Factor XI protein; day −5 (before treatment),5%
same,Inhibition of Factor XI protein relative to the PBS control,Factor XI protein; day −14 (before treatment),0%
same,Kidney weight,[1],14 g
same,Liver weight,[1],53 g
same,Spleen weight,[1],5 g
same,Body weight,[1]; day 1,2890 g
same,Body weight,[1]; day 8,2784 g
same,Body weight,[1]; day 15,2817 g
same,Body weight,[1]; day 22,2857 g
same,Body weight,[1]; day 29,2863 g
same,Body weight,[1]; day 36,3327 g
same,Body weight,[1]; day 43,3355 g
same,Body weight,[1]; day 50,3408 g
same,Body weight,[1]; day 57,3387 g
same,Body weight,[1]; day 64,3384 g
same,Body weight,[1]; day 71,2942 g
same,Body weight,[1]; day 78,2822 g
same,platelet count,[2]; day 8,438000 µL⁻¹
same,platelet count,[2]; day 15,439000 µL⁻¹
same,platelet count,[2]; day 22,364000 µL⁻¹
same,platelet count,[2]; day 29,397000 µL⁻¹
same,platelet count,[2]; day 36,428000 µL⁻¹
same,platelet count,[2]; day 43,351000 µL⁻¹
same,platelet count,[2]; day 50,419000 µL⁻¹
same,platelet count,[2]; day 57,409000 µL⁻¹
same,platelet count,[2]; day 64,383000 µL⁻¹
same,platelet count,[2]; day 71,394000 µL⁻¹
same,platelet count,[2]; day 78,366000 µL⁻¹
same,platelet count,[2]; day 85,387000 µL⁻¹
same,platelet count,[2]; day −5,456000 µL⁻¹
same,platelet count,[2]; day −14,434000 µL⁻¹
ISIS 417002: gapmer of Table 8 (antisense eG*eG*dT*dG*d[5mC]*dA*d[5mC]*dA*dG*dT*dT*dT*d[5mC]*dT*dG*eG*e[5mC]*eA*eG*eG),Inhibition of Factor XI protein relative to the PBS control,Factor XI protein; day 8,0%
same,Inhibition of Factor XI protein relative to the PBS control,Factor XI protein; day 15,4%
same,Inhibition of Factor XI protein relative to the PBS control,Factor XI protein; day 22,2%
same,Inhibition of Factor XI protein relative to the PBS control,Factor XI protein; day 29,8%
same,Inhibition of Factor XI protein relative to the PBS control,Factor XI protein; day 36,8%
same,Inhibition of Factor XI protein relative to the PBS control,Factor XI protein; day 43,9%
same,Inhibition of Factor XI protein relative to the PBS control,Factor XI protein; day 50,13%
same,Inhibition of Factor XI protein relative to the PBS control,Factor XI protein; day 57,24%
same,Inhibition of Factor XI protein relative to the PBS control,Factor XI protein; day 64,26%
same,Inhibition of Factor XI protein relative to the PBS control,Factor XI protein; day 71,30%
same,Inhibition of Factor XI protein relative to the PBS control,Factor XI protein; day 78,22%
same,Inhibition of Factor XI protein relative to the PBS control,Factor XI protein; day 85,23%
same,Inhibition of Factor XI protein relative to the PBS control,Factor XI protein; day −5 (before treatment),0%
same,Inhibition of Factor XI protein relative to the PBS control,Factor XI protein; day −14 (before treatment),0%
same,Kidney weight,[1],15 g
same,Liver weight,[1],51 g
same,Spleen weight,[1],5 g
same,Body weight,[1]; day 1,2640 g
same,Body weight,[1]; day 8,2523 g
same,Body weight,[1]; day 15,2571 g
same,Body weight,[1]; day 22,2617 g
same,Body weight,[1]; day 29,2622 g
same,Body weight,[1]; day 36,2631 g
same,Body weight,[1]; day 43,2630 g
same,Body weight,[1]; day 50,2652 g
same,Body weight,[1]; day 57,2654 g
same,Body weight,[1]; day 64,2598 g
same,Body weight,[1]; day 71,2727 g
same,Body weight,[1]; day 78,2570 g
same,platelet count,[2]; day 8,435000 µL⁻¹
same,platelet count,[2]; day 15,410000 µL⁻¹
same,platelet count,[2]; day 22,377000 µL⁻¹
same,platelet count,[2]; day 29,410000 µL⁻¹
same,platelet count,[2]; day 36,415000 µL⁻¹
same,platelet count,[2]; day 43,393000 µL⁻¹
same,platelet count,[2]; day 50,389000 µL⁻¹
same,platelet count,[2]; day 57,403000 µL⁻¹
same,platelet count,[2]; day 64,436000 µL⁻¹
same,platelet count,[2]; day 71,490000 µL⁻¹
same,platelet count,[2]; day 78,432000 µL⁻¹
same,platelet count,[2]; day 85,418000 µL⁻¹
same,platelet count,[2]; day −5,466000 µL⁻¹
same,platelet count,[2]; day −14,442000 µL⁻¹
